This is an account of results in publication PMC3145320 (Bioorganic & medicinal chemistry, 2011).

In assay [1] the target is T1, μ-opiate receptor (Homo sapiens, UniProt P35372). The assay can be described thus: biochemical. The settings on record: for Kb: Ke μ-Antagonism.
The next assay deals with κ-opioid receptor (Homo sapiens, UniProt P41145). The assay can be described thus: [35S]GTP-γ-S binding, κ-antagonism. The settings on record: n=3; for Kb: Ke κ-Antagonism. Type of assay: biochemical.
Assay [2] addresses T1, μ-opiate receptor. It is filed as binding. The settings on record: read-out: Ki μ.
The target in the next assay is κ-opiate receptor (Homo sapiens, UniProt P41145). The assay can be described thus: [3H] opioid receptor binding, κ. The settings on record: read-out: Ki κ; CHO cells stably transfected, expressing κ-opiate receptor; n=3.
κ-opiate receptor, sequence (P41145 whole entry): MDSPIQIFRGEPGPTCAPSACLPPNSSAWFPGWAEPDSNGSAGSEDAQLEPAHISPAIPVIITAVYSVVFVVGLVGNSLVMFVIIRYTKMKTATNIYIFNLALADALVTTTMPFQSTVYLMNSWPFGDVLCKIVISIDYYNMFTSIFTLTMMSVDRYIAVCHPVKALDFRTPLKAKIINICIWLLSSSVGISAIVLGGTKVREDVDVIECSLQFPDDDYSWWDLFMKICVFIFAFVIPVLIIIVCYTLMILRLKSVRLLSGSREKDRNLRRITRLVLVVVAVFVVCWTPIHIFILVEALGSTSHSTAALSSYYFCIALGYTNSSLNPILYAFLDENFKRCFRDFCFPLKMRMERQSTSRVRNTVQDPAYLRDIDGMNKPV

T1 sequence (P35372 whole entry): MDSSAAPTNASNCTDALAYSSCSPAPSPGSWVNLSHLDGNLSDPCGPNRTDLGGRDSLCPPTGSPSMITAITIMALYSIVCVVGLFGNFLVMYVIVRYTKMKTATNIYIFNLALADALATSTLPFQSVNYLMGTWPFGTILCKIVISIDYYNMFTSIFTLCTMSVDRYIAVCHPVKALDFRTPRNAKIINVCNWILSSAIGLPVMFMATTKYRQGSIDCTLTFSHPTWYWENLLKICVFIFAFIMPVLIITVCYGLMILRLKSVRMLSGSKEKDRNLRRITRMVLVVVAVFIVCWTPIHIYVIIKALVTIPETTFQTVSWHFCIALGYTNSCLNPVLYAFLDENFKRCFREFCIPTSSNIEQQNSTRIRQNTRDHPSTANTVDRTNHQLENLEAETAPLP
κ-opioid receptor, sequence (P41145 whole entry): as the sequence (P41145 whole entry) above

For the molecule `Oc1cccc2c1O[C@@H]1CC[C@@H]3C[C@]21CCN3CCc1ccccc1` (racemic) [rac 5, rac-(4R,6aR,11bR)-2,3,4,5,6,6a-hexahydro-3-phenethyl-1H-4,11b-methanobenzofuro[3,2-d]azocin-8-ol], the Kb at μ-opiate receptor [1] turned out to be 274 ± 49 nM; on κ-opioid receptor, 163 ± 29 nM.
For `Oc1ccc2c(c1)[C@]13CCN(CCc4ccccc4)[C@H](CC[C@H]1O2)C3` (racemic) [rac 10, rac-(4R,6aR,11bR)-2,3,4,5,6,6a-hexahydro-3-phenethyl-1H-4,11b-methanobenzofuro[3,2-d]azocin-10-ol], at κ-opioid receptor, the Kb worked out at 46 ± 9 nM.
On to “(4S,6aR,11bS)-2,3,4,5,6,6a-hexahydro-3-phenethyl-1H-4,11b-methanobenzofuro[3,2-d]azocine-8-ol [Compound 19a]”, for which the Ki at μ-opiate receptor [2] is 384 ± 38 nM; on κ-opiate receptor it was 367 ± 19 nM. Also, the “Ke μ-Antagonism” value on μ-opiate receptor [1] is 328 ± 67 nM. Also, at κ-opioid receptor, the “Ke κ-Antagonism” value turned out to be 761 ± 191 nM.
For the molecule `Oc1cccc2c1O[C@H]1CC[C@@H]3C[C@]21CCN3CCc1ccccc1` (stereo in doubt) [Compound 19b, (4R,6aS,11bR)-2,3,4,5,6,6a-Hexahydro-3-phenethyl-1H-4,11b-methanobenzofuro[3,2-d]azocine-8-ol], the Kb at μ-opiate receptor [1] was 31 ± 6 nM; on κ-opioid receptor, 22 ± 6 nM.
For `Oc1ccc2c(c1)[C@]13CCN(CCc4ccccc4)[C@H](CC[C@@H]1O2)C3` [Compound 16a, (4R,6aS,11bR)-2,3,4,5,6,6a-Hexahydro-3-phenethyl-1H-4,11b-methanobenzofuro[3,2-d]azocine-10-ol], the Kb turned out to be 47 ± 9 nM at μ-opiate receptor [1] and 100 ± 3 nM at κ-opioid receptor.
Take `Oc1ccc2c(c1)[C@@]13CCN(CCc4ccccc4)[C@@H](CC[C@H]1O2)C3` [Compound 16b, (4S,6aR,11bS)-2,3,4,5,6,6a-Hexahydro-3-phenethyl-1H-4,11b-methanobenzofuro[3,2-d]azocine-10-ol]: the Kb on μ-opiate receptor [1] worked out at 227 ± 33 nM; on κ-opioid receptor, 103 ± 17 nM.

In general, Kb refers to the equilibrium dissociation constant of an antagonist, usually derived from a functional assay. Low readings indicate a more potent antagonist, high ones a less potent antagonist. Usually Ki stands for the equilibrium dissociation constant of an inhibitor or competing ligand from its target.
